In patent US20160122320A1, “USEFUL COMBINATIONS OF MONOBACTAM ANTIBIOTICS WITH BETA-LACTAMASE INHIBITORS” (Basilea Pharmaceutica AG, priority 2005, published 2016):
Values joined by “and” are separate entries in the source; they are usually repeats but may differ in a detail not shown here. Equal values may be shown once. Where a name gives a salt, the structure may show the parent alone.

What was measured:
Test in all cases: MIC, NCCLS broth microdilution
Type in all cases: cell-based
Settings in all cases: for MIC of antibiotic at fixed inhibitor concentration (4 mg/L): MIC of antibiotic compound 1 with the labelled bridged monobactam of formula II and clavulanate, 4 mg/L each; for MIC of antibiotic: antibiotic alone, no inhibitor
[1] = tested on: Pseudomonas aeruginosa 1973E
Summary of the method: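 Growth inhibition read by eye after overnight incubation (30° C. or 37° C.) defines the MIC, using NCCLS M7-A5 broth microdilution with ≤1% DMSO. When combinations were tested, only the formula I compound was titrated and each partner was fixed at 4 μg/mL.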

Serratia marcescens S6 = tested on: Serratia marcescens S6
Enterobacter cloacae P99 = tested on: Enterobacter cloacae P99
[2] = tested on: Klebsiella pneumoniae CF104
Acinetobacter sp. J2 = tested on: Acinetobacter sp. J2
[3] = tested on: Stenotrophomonas malthophilia 1AC736
[4] = tested on: Pseudomonas aeruginosa MK1184
Protocol: Antimicrobial activity of the compounds and of their combinations was determined against a selection of organisms according to the standard procedures described by the National Committee for Clinical Laboratory Standards (National Committee for Clinical Laboratory. Standards (2000). Methods for Dilution Antimicrobial Susceptibility Tests for Bacteria That Grow Aerobically-Fifth Edition: Approved Standard M7-A5. NCCLS, Wayne, Pa., USA).
In all cases the final concentration of DMSO incubated with the bacteria is less than or equal to 1%. […] Plates were incubated overnight at an appropriate temperature (30° C. or 37° C.) and optical densities assessed by eye. The MIC value is defined as the lowest compound concentration completely inhibiting visible growth of the test organism. When combinations between compounds of formula I with compounds of formula II and are evaluated the compounds of formula I are tested in dilution series as described above while the compounds of formula II and III-XIII were present in all wells at a constant concentration of 4 μg/mL each.

[5] = Stenotrophomonas malthophilia 1AC736
[6] = Acinetobacter baumannii J2, with 102 and clavulanate
[7] = Acinetobacter baumannii J2, with 324 and clavulanate
[8] = Stenotrophomonas maltophilia 1AC736
[9] = Stenotrophomonas maltophilia 1AC736, with 102 and clavulanate
[10] = Stenotrophomonas maltophilia 1AC736, with 324 and clavulanate

Row | Structure (SMILES) | MIC of antibiotic at fixed inhibitor concentration (4 mg/L) [1] [mg/L] | MIC of antibiotic at fixed inhibitor concentration (4 mg/L) (Serratia marcescens S6) [mg/L] | MIC of antibiotic at fixed inhibitor concentration (4 mg/L) (Enterobacter cloacae P99) [mg/L] | MIC of antibiotic at fixed inhibitor concentration (4 mg/L) [2] [mg/L] | MIC of antibiotic at fixed inhibitor concentration (4 mg/L) (Acinetobacter sp. J2; Acinetobacter sp. J2) [mg/L] | MIC of antibiotic at fixed inhibitor concentration (4 mg/L) [3, 5] [mg/L] | MIC of antibiotic at fixed inhibitor concentration (4 mg/L) [4] [mg/L] | MIC of antibiotic [1] [mg/L] | MIC of antibiotic (Serratia marcescens S6) [mg/L] | MIC of antibiotic (Enterobacter cloacae P99) | MIC of antibiotic [2] [mg/L] | MIC of antibiotic (Acinetobacter sp. J2; Acinetobacter baumannii J2) [mg/L] | MIC of antibiotic [3, 8] [mg/L] | MIC of antibiotic [4] [mg/L] | also measured
1 | COC(=O)c1ccc[n+](CC(=O)N2CC[C@@H]3[C@H]2C(=O)N3S(=O)(=O)[O-])c1 [Compound 116, (1S,5R)-2-{2-[3-(methoxycarbonyl)pyridinium]acetyl}-7-oxo-2,6-diazabicyclo[3.2.0]heptane-6-sulfonate, inner salt] | 16 | 0.25 | 32 | 0.5 | 16 | 0.125 | 8 |  |  |  |  |  |  |  | 
2 | NC(=O)OC[C@@H]1[C@H](NC(=O)/C(=N\OCc2cc(=O)c(O)cn2O)c2nsc(N)n2)C(=O)N1OS(=O)(=O)O [Compound 48, ((2S,3S)-3-{(2Z)-2-(5-amino(1,2,4-thiadiazol-3-yl))-3-[(1,5-dihydroxy-4-oxo(2-hydropyridyl))methoxy]-3-azaprop-2-enoylamino}-1-(hydroxysulfonyloxy)-4-oxoazetidin-2-yl)methyl aminooate] |  |  |  |  |  |  |  | 8 | 8 | >32 mg/L | >32 | >32 | 4 | 4 | MIC of antibiotic at fixed inhibitor concentration of 4 mg/L ([1]; with 102 and clavulanate): 4 mg/L; MIC of antibiotic at fixed inhibitor concentration of 4 mg/L ([1]; with 324 and clavulanate): 8 mg/L; MIC of antibiotic at fixed inhibitor concentration of 4 mg/L (Serratia marcescens S6; with 102 and clavulanate): 2 mg/L; MIC of antibiotic at fixed inhibitor concentration of 4 mg/L (Serratia marcescens S6; with 324 and clavulanate): 2 mg/L; MIC of antibiotic at fixed inhibitor concentration of 4 mg/L (Enterobacter cloacae P99; with 102 and clavulanate): 32 mg/L; MIC of antibiotic at fixed inhibitor concentration of 4 mg/L (Enterobacter cloacae P99; with 324 and clavulanate): 16 mg/L; MIC of antibiotic at fixed inhibitor concentration of 4 mg/L ([2]; with 102 and clavulanate): 2 mg/L; MIC of antibiotic at fixed inhibitor concentration of 4 mg/L ([2]; with 324 and clavulanate): 4 mg/L; MIC of antibiotic at fixed inhibitor concentration of 4 mg/L (Acinetobacter sp. J2; [6]): >32 mg/L; MIC of antibiotic at fixed inhibitor concentration of 4 mg/L (Acinetobacter sp. J2; [7]): >32 mg/L; MIC of antibiotic at fixed inhibitor concentration of 4 mg/L [3, 9]: 4 mg/L; MIC of antibiotic at fixed inhibitor concentration of 4 mg/L [3, 10]: 2 mg/L; MIC of antibiotic at fixed inhibitor concentration of 4 mg/L ([4]; with 102 and clavulanate): 2 mg/L; MIC of antibiotic at fixed inhibitor concentration of 4 mg/L ([4]; with 324 and clavulanate): 2 mg/L
3 | CN(C)c1ccc(NC(=O)N2CC[C@@H]3[C@H]2C(=O)N3S(=O)(=O)[O-])cc1.[Na+] [Compound 309, Sodium(1S,5R)-2-{N-[4-(dimethylamino)phenyl]carbamoyl}-7-oxo-2,6-diazabicyclo[3.2.0]heptane-6-sulfonate] | 4 | 0.5 | 32 | 2 | >32 | 0.125 | >32 |  |  |  |  |  |  |  | 
4 | NS(=O)(=O)c1cccc(NC(=O)N2CC[C@@H]3[C@H]2C(=O)N3S(=O)(=O)[O-])c1.[Na+] [Compound 308] | 4 | 0.5 | 16 | 0.5 | >32 | 0.125 | >32 |  |  |  |  |  |  |  | 
5 | C[C@@H](O)[C@H]1C(=O)N2C(C(=O)O)=C(S[C@@H]3CN[C@H](C(=O)N(C)C)C3)[C@H](C)[C@H]12 [Meropenem, meropenem, reference compound] |  |  |  |  |  |  |  | 1 | 16 | 0.13 mg/L and 0.125 mg/L | <0.06 | 2 | 32 | 2 | MIC of antibiotic (Acinetobacter sp. J2; Acinetobacter sp. J2): 2 mg/L; MIC of antibiotic [3, 5]: 32 mg/L
6 | NC(=O)OCC1C(NC(=O)C(=NOCc2cc(=O)c(O)cn2O)c2nc(N)sc2Cl)C(=O)N1OS(=O)(=O)O (centres unmarked) [Compound 47] |  |  |  |  |  |  |  | 8 | 2 | >32 mg/L | >32 | >32 | 1 | 4 | MIC of antibiotic at fixed inhibitor concentration of 4 mg/L ([1]; with 102 and clavulanate): 4 mg/L; MIC of antibiotic at fixed inhibitor concentration of 4 mg/L ([1]; with 324 and clavulanate): 8 mg/L; MIC of antibiotic at fixed inhibitor concentration of 4 mg/L (Serratia marcescens S6; with 102 and clavulanate): 2 mg/L; MIC of antibiotic at fixed inhibitor concentration of 4 mg/L (Serratia marcescens S6; with 324 and clavulanate): 2 mg/L; MIC of antibiotic at fixed inhibitor concentration of 4 mg/L (Enterobacter cloacae P99; with 102 and clavulanate): 16 mg/L; MIC of antibiotic at fixed inhibitor concentration of 4 mg/L (Enterobacter cloacae P99; with 324 and clavulanate): 32 mg/L; MIC of antibiotic at fixed inhibitor concentration of 4 mg/L ([2]; with 102 and clavulanate): 4 mg/L; MIC of antibiotic at fixed inhibitor concentration of 4 mg/L ([2]; with 324 and clavulanate): 2 mg/L; MIC of antibiotic at fixed inhibitor concentration of 4 mg/L (Acinetobacter sp. J2; [6]): >32 mg/L; MIC of antibiotic at fixed inhibitor concentration of 4 mg/L (Acinetobacter sp. J2; [7]): >32 mg/L; MIC of antibiotic at fixed inhibitor concentration of 4 mg/L [3, 9]: 1 mg/L; MIC of antibiotic at fixed inhibitor concentration of 4 mg/L [3, 10]: 1 mg/L; MIC of antibiotic at fixed inhibitor concentration of 4 mg/L ([4]; with 102 and clavulanate): 2 mg/L; MIC of antibiotic at fixed inhibitor concentration of 4 mg/L ([4]; with 324 and clavulanate): 4 mg/L
7 | NC(=O)Nc1ccc(NC(=O)N2CC[C@@H]3[C@H]2C(=O)N3S(=O)(=O)[O-])cc1.[Na+] [Compound 315] | 4 | 0.25 | 8 | 1 | 4 | 0.125 | >32 |  |  |  |  |  |  |  | 
8 | Cn1nnnc1SCC(=O)N1CC[C@@H]2[C@H]1C(=O)N2S(=O)(=O)[O-].[Na+] [Compound 206] | 4 | 4 | 8 | 0.25 | 4 | 0.125 | >32 |  |  |  |  |  |  |  | 
